Laboratory results taken from patent publication US11179390B2, “Subcutaneous administration of a P2Y12 receptor antagonist” (Idorsia Pharmaceuticals Ltd, priority 2017, dated 2021).
Where two headings read alike, the source gives them in different places.

Columns and labels:
[1] = oral administration of Compound 1 or its prodrug, clinical phase I study; cited from earlier work
[2] = system: FeCl3 rat thrombosis model; details: compared with Ticagrelor; cited from earlier work
[3] = Solubility in aqueous media; format: physicochemical; details: lyophilized disodium salt of Compound 1, reconstituted in water, pH=8.4
[4] = Plasma pharmacokinetics after single subcutaneous doses, clinical phase I study; format: in vivo, human (healthy male subjects); details: male, human, sc, N = 6, plasma; for half-life: read-out: t1/2, G.M. (converted); for Tmax: read-out: tmax, Median
Experimental: (§1) The time- and dose-dependency of plasma concentration and inhibition of platelet aggregation (IPA) after subcutaneous administration of Compound 1 was investigated in a clinical phase I study in healthy male subjects.
(§2) In a randomized, double-blind, placebo-controlled study, 48 subjects in fasted condition were exposed to single, subcutaneous doses ranging from 1 to 32 mg (1 mg, 2 mg, 4 mg, 8 mg, 16 mg and 32 mg) of Compound 1 (n=6 on Compound 1 and n=2 on placebo per dose level).
(§3) Compound 1 for s.c. administration was available as sealed glass vials at the strength of 20 mg. The vials contained lyophilized Compound 1 to be reconstituted with 1 mL of water for injection to prepare stock solutions of 20 mg/mL (see above: Formulation of Compound 1 (higher dose of 20 mg/mL)). These stock solutions were further diluted with 0.9% sodium chloride to prepare 2, 4, 8, 16, and 20 mg/mL solutions. The volume injected was 0.5 mL for dose levels 1, 2, 4, and 8 mg. For dose levels 16 and 32 mg, 1 or 2 injection(s) of 0.8 mL from the 20 mg/mL solution was (were) performed.
(§4) The solution for injection was prepared for administration in a syringe suitable for s.c. injection. The solution was administered as injection(s) in the thigh.
The plasma PK parameters of Compound 1 were derived by non-compartmental analysis of the plasma concentration-time profiles. The following parameters were obtained:
maximum plasma concentration (Cmax); time to reach Cmax (tmax); area under the plasma concentration-time curve (AUC) from zero to time t of the last measured concentration above the limit of quantification (AUC0−t); and terminal elimination half-life (t1/2).
Blood was collected by direct venipuncture or via an i.v. catheter placed in an antecubital vein in the arm in a 4 mL Monovette® or equivalent tube containing ethylene diamine tetra-acetic acid. Immediately following collection of the required blood volume, the Monovettes® were slowly tilted backwards and forwards (no shaking) to bring the anticoagulant into solution, and immediately cooled on ice. Within 30 min of collection, the Monovettes® were centrifuged at approximately 1500 g for 10 min at 4° C. The plasma was transferred into one labeled polypropylene tube to avoid carry-over of erythrocytes. All samples were stored in an upright position below −70° C.
The analysis of Compound 1 in plasma was performed using a validated liquid chromatography coupled to tandem mass spectrometry assay. The lower limit of quantification (LLOQ) was 1 ng/mL. Concentrations were calculated by interpolation from a calibration curve. Quality control (QC) samples were analyzed throughout the study. Their measured concentrations were used to determine between-run and overall precision and accuracy of the analysis.

[5] = system: Adenosine diphosphate (ADP)-induced platelet aggregation; assay: Inhibition of platelet aggregation (IPA), LTA assay, after single subcutaneous doses, clinical phase I study; format: in vivo, human (healthy male subjects); details: for % IPA (inhibition of platelet aggregation) calculated using maximum platelet aggregation values, mean ± SD: N = 6, 20 μM ADP
Experimental: as §1, §2, §3, §4
PD blood samples were collected by direct venipuncture or via an i.v. catheter placed in an antecubital vein in the arm, using 18-21 gauge needles. The first 2 mL of blood were discarded, and, thereafter, blood was drawn gently into two open 3.5 mL collection tubes. Collection tubes for LTA (light transmission aggregometry) assays contained phenylalanine-proline-arginine-cholormethylketone (PPACK) as an anticoagulant.
Adenosine diphosphate (ADP)-induced platelet aggregation was evaluated by a LTA assay measuring platelet-induced aggregation as an increase in light transmittance (Michelson A D, Methods for the measurement of platelet function (2009) Am J Cardiol 103(3):20A-26A).
LTA assay: The two 3.5 mL blood samples were centrifuged to prepare platelet-rich plasma (PRP) and platelet-poor plasma (PPP). If needed, PRP was adjusted to a final platelet count of 260×10^9 platelets per liter by dilution with PPP from the same donor. The assay was performed with an 8-channel platelet aggregometer, recording the aggregation after addition of 20 μM ADP as agonist for 6 min. The results are expressed as percent change in light transmittance at maximum (peak) platelet aggregation (MPA), calculated relative to the baseline signal of 0%. The measurements were performed in duplicate.

- solubility [3]: 75 mg/mL
- AUC(0-t) ([4]; 1 mg s.c. single dose): 56.1 ng·h/mL
- Cmax ([4]; 1 mg s.c. single dose): 33.7 ng/mL
- half-life ([4]; 1 mg s.c. single dose): 1.34 h
- Tmax ([4]; 1 mg s.c. single dose): 0.5 h
- AUC(0-t) ([4]; 2 mg s.c. single dose): 116 ng·h/mL
- Cmax ([4]; 2 mg s.c. single dose): 58.4 ng/mL
- half-life ([4]; 2 mg s.c. single dose): 1.92 h
- Tmax ([4]; 2 mg s.c. single dose): 0.5 h
- AUC(0-t) ([4]; 4 mg s.c. single dose): 261 ng·h/mL
- Cmax ([4]; 4 mg s.c. single dose): 128 ng/mL
- half-life ([4]; 4 mg s.c. single dose): 2.66 h
- Tmax ([4]; 4 mg s.c. single dose): 0.5 h
- AUC(0-t) ([4]; 8 mg s.c. single dose): 585 ng·h/mL
- Cmax ([4]; 8 mg s.c. single dose): 273 ng/mL
- half-life ([4]; 8 mg s.c. single dose): 3.98 h
- Tmax ([4]; 8 mg s.c. single dose): 0.5 h
- AUC(0-t) ([4]; 16 mg s.c. single dose): 1120 ng·h/mL
- Cmax ([4]; 16 mg s.c. single dose): 435 ng/mL
- half-life ([4]; 16 mg s.c. single dose): 7.2 h
- Tmax ([4]; 16 mg s.c. single dose): 0.75 h
- AUC(0-t) ([4]; 32 mg s.c. single dose): 2340 ng·h/mL
- Cmax ([4]; 32 mg s.c. single dose): 930 ng/mL
- half-life ([4]; 32 mg s.c. single dose): 9.2 h
- Tmax ([4]; 32 mg s.c. single dose): 0.75 h
Structure (SMILES): CCCCOC(=O)N1CCN(C(=O)[C@H](CP(=O)(O)O)NC(=O)c2cc(N3CC[C@H](OC)C3)nc(-c3ccccc3)n2)CC1 [Compound 1, 4-((R)-2-{[6-((S)-3-methoxy-pyrrolidin-1-yl)-2-phenyl-pyrimidine-4-carbonyl]-amino}-3-phosphono-propionyl)-piperazine-1-carboxylic acid butyl ester]
- bleeding events [1]: No bleeding events were observed
- therapeutic window [2]: significantly wider therapeutic window even than Ticagrelor
- % IPA (inhibition of platelet aggregation) calculated using maximum platelet aggregation values, mean ± SD ([5]; 1 mg s.c., 0.25 h): 61.4 ± 15.1%
- % IPA (inhibition of platelet aggregation) calculated using maximum platelet aggregation values, mean ± SD ([5]; 1 mg s.c., 0.5 h): 64.4 ± 12.8%
- % IPA (inhibition of platelet aggregation) calculated using maximum platelet aggregation values, mean ± SD ([5]; 1 mg s.c., 3 h): 15.8 ± 20.0%
- % IPA (inhibition of platelet aggregation) calculated using maximum platelet aggregation values, mean ± SD ([5]; 1 mg s.c., 4 h): −10.0 ± 24.2%
- % IPA (inhibition of platelet aggregation) calculated using maximum platelet aggregation values, mean ± SD ([5]; 1 mg s.c., 5 h): −6.1 ± 26.0%
- % IPA (inhibition of platelet aggregation) calculated using maximum platelet aggregation values, mean ± SD ([5]; 1 mg s.c., 12 h): −4.5 ± 24.7%
- % IPA (inhibition of platelet aggregation) calculated using maximum platelet aggregation values, mean ± SD ([5]; 1 mg s.c., 48 h): −47.7 ± 29.9%
- % IPA (inhibition of platelet aggregation) calculated using maximum platelet aggregation values, mean ± SD ([5]; 2 mg s.c., 0.25 h): 60.3 ± 48.3%
- % IPA (inhibition of platelet aggregation) calculated using maximum platelet aggregation values, mean ± SD ([5]; 2 mg s.c., 0.5 h): 79.5 ± 10.8%
- % IPA (inhibition of platelet aggregation) calculated using maximum platelet aggregation values, mean ± SD ([5]; 2 mg s.c., 3 h): 36.8 ± 30.0%
- % IPA (inhibition of platelet aggregation) calculated using maximum platelet aggregation values, mean ± SD ([5]; 2 mg s.c., 4 h): 35.5 ± 18.9%
- % IPA (inhibition of platelet aggregation) calculated using maximum platelet aggregation values, mean ± SD ([5]; 2 mg s.c., 5 h): 14.1 ± 28.4%
- % IPA (inhibition of platelet aggregation) calculated using maximum platelet aggregation values, mean ± SD ([5]; 2 mg s.c., 12 h): 31.3 ± 28.9%
- % IPA (inhibition of platelet aggregation) calculated using maximum platelet aggregation values, mean ± SD ([5]; 2 mg s.c., 48 h): 11.3 ± 38.5%
- % IPA (inhibition of platelet aggregation) calculated using maximum platelet aggregation values, mean ± SD ([5]; 4 mg s.c., 0.25 h): 79.7 ± 6.0%
- % IPA (inhibition of platelet aggregation) calculated using maximum platelet aggregation values, mean ± SD ([5]; 4 mg s.c., 0.5 h): 84.7 ± 5.4%
- % IPA (inhibition of platelet aggregation) calculated using maximum platelet aggregation values, mean ± SD ([5]; 4 mg s.c., 3 h): 58.5 ± 7.2%
- % IPA (inhibition of platelet aggregation) calculated using maximum platelet aggregation values, mean ± SD ([5]; 4 mg s.c., 4 h): 50.6 ± 22.1%
- % IPA (inhibition of platelet aggregation) calculated using maximum platelet aggregation values, mean ± SD ([5]; 4 mg s.c., 5 h): 47.9 ± 17.9%
- % IPA (inhibition of platelet aggregation) calculated using maximum platelet aggregation values, mean ± SD ([5]; 4 mg s.c., 12 h): 37.4 ± 16.7%
- % IPA (inhibition of platelet aggregation) calculated using maximum platelet aggregation values, mean ± SD ([5]; 4 mg s.c., 48 h): 2.1 ± 16.3%
- % IPA (inhibition of platelet aggregation) calculated using maximum platelet aggregation values, mean ± SD ([5]; 8 mg s.c., 0.25 h): 88.9 ± 8.4%
- % IPA (inhibition of platelet aggregation) calculated using maximum platelet aggregation values, mean ± SD ([5]; 8 mg s.c., 0.5 h): 90.0 ± 8.5%
- % IPA (inhibition of platelet aggregation) calculated using maximum platelet aggregation values, mean ± SD ([5]; 8 mg s.c., 3 h): 77.9 ± 19.5%
- % IPA (inhibition of platelet aggregation) calculated using maximum platelet aggregation values, mean ± SD ([5]; 8 mg s.c., 4 h): 70.9 ± 12.5%
- % IPA (inhibition of platelet aggregation) calculated using maximum platelet aggregation values, mean ± SD ([5]; 8 mg s.c., 5 h): 75.2 ± 11.5%
- % IPA (inhibition of platelet aggregation) calculated using maximum platelet aggregation values, mean ± SD ([5]; 8 mg s.c., 12 h): 64.0 ± 10.4%
- % IPA (inhibition of platelet aggregation) calculated using maximum platelet aggregation values, mean ± SD ([5]; 8 mg s.c., 48 h): −1.3 ± 33.7%
- duration for which mean % IPA≥85% was sustained post administration ([5]; 16 mg s.c.): approximately 5 h
- % IPA (inhibition of platelet aggregation) calculated using maximum platelet aggregation values, mean ± SD ([5]; 16 mg s.c., 0.25 h): 92.8 ± 5.5%
- % IPA (inhibition of platelet aggregation) calculated using maximum platelet aggregation values, mean ± SD ([5]; 16 mg s.c., 0.5 h): 93.1 ± 3.6%
- % IPA (inhibition of platelet aggregation) calculated using maximum platelet aggregation values, mean ± SD ([5]; 16 mg s.c., 3 h): 95.0 ± 1.2%
- % IPA (inhibition of platelet aggregation) calculated using maximum platelet aggregation values, mean ± SD ([5]; 16 mg s.c., 4 h): 88.2 ± 4.7%
- % IPA (inhibition of platelet aggregation) calculated using maximum platelet aggregation values, mean ± SD ([5]; 16 mg s.c., 5 h): 87.6 ± 5.5%
- % IPA (inhibition of platelet aggregation) calculated using maximum platelet aggregation values, mean ± SD ([5]; 16 mg s.c., 12 h): 76.0 ± 13.8%
- % IPA (inhibition of platelet aggregation) calculated using maximum platelet aggregation values, mean ± SD ([5]; 16 mg s.c., 48 h): −1.6 ± 43.8%
- duration for which mean % IPA≥85% was sustained post administration ([5]; 32 mg s.c.): ~12 h
- % IPA (inhibition of platelet aggregation) calculated using maximum platelet aggregation values, mean ± SD ([5]; 32 mg s.c., 0.25 h): 95.5 ± 2.7%
- % IPA (inhibition of platelet aggregation) calculated using maximum platelet aggregation values, mean ± SD ([5]; 32 mg s.c., 0.5 h): 94.5 ± 2.0%
- % IPA (inhibition of platelet aggregation) calculated using maximum platelet aggregation values, mean ± SD ([5]; 32 mg s.c., 3 h): 94.5 ± 2.0%
- % IPA (inhibition of platelet aggregation) calculated using maximum platelet aggregation values, mean ± SD ([5]; 32 mg s.c., 4 h): 91.2 ± 1.9%
- % IPA (inhibition of platelet aggregation) calculated using maximum platelet aggregation values, mean ± SD ([5]; 32 mg s.c., 5 h): 92.1 ± 2.6%
- % IPA (inhibition of platelet aggregation) calculated using maximum platelet aggregation values, mean ± SD ([5]; 32 mg s.c., 12 h): 83.5 ± 12.9%
- % IPA (inhibition of platelet aggregation) calculated using maximum platelet aggregation values, mean ± SD ([5]; 32 mg s.c., 48 h): 29.8 ± 20.9%
- time post dosing at which peak % IPA was achieved ([5]; at each dose level (1 to 32 mg s.c.)): 15 to 30 min
- peak % IPA ([5]; doses ≥4 mg s.c.): exceeded 85%
- peak % IPA ([5]; doses ≥8 mg s.c.): exceeded 85%
- time in which peak % IPA exceeded 85% ([5]; doses ≥8 mg s.c.): less than 15 min
